According to patent US9750248B2, “Synergistic fungicidal compositions” (Dow AgroSciences LLC, priority 2012, dated 2017):

Columns and labels:
Type in all cases: in vivo
[1] = test system: Septoria tritici (SEPTTR); test: Control of wheat leaf blotch, one-day protective (1DP) application, greenhouse; conditions: for A % DC: component A alone; for B % DC: component B alone
Description: (§1) For the mixture studies with compound of Formula I: Treatments consisted of fungicides, including a compound of Formula I, tebuconazole, propiconazole, metconazole, and cyproconazole, applied either individually or as two-way mixtures with a compound of Formula I. Technical grades of materials were dissolved in acetone to make stock solutions which were used to perform three-fold dilutions in acetone for each individual fungicide component or for the two-way mixtures. Desired fungicide rates were obtained after mixing dilutions with nine volumes of water containing 110 parts per million (ppm) Triton X-100. The fungicide solutions (10 milliliters (mL)) were applied onto six pots of plants using an automated booth sprayer, which utilized two 6218-1/4 JAUPM spray nozzles operating at 20 pounds per square inch (psi) set at opposing angles to cover both leaf surfaces. All sprayed plants were allowed to air dry prior to further handling. Control plants were sprayed in the same manner with a solvent blank.
(§2) For the one-day protectant experiments, the plants were inoculated with an aqueous spore suspension of the pathogen of interest (either PUCCRT or SEPTTR) and then placed in a dew room from 1-3 days to allow for infection to occur. The plants were then placed in the greenhouse for symptom development to occur. In the case of PUCCRT, symptoms typically appeared in 7-10 days while for SEPTTR symptoms typically appeared in 25-30 days.
(§3) When disease severity reached 50-100% on the control plants, infection levels were assessed on treated plants visually and scored on a scale of 0 to 100 percent. The percentage of disease control was then calculated using the ratio of disease on treated plants relative to control plants.
(§4) The Colby equation was used to determine the fungicidal effects expected from the mixtures. (See Colby, S. R. Calculation of the synergistic and antagonistic response of herbicide combinations, Weeds 1967, 15, 20-22.). More specifically, in Tables 1-5, Colby's equation was used to calculate the expected activity of mixtures containing two active ingredients, A and B: Expected=A+B−(A×B/100), wherein

[2] = test system: Puccinia recondita-tritici (PUCCRT); test: Control of wheat brown rust in a field research trial; conditions: for B % DC: component B alone
Description: as §4
The field trial was conducted at the Dow AgroSciences field station located at Mogi Mirim, Brazil. There were four replicate plots per treatment, with each plot 2×3.5 meters in length and width. The plots were sprayed with the treatments twice, once at growth stage BBCH 33 and again at growth stage BBCH 61-65. Treatments were applied with spray volumes of 150 liters/hectare (L/ha) with an XR flat fan nozzle. Disease development relied on natural inoculum (no artificial infestation). Ten plants per plot were used for each disease severity assessment, with all leaves per plant used for the assessment.

[3] = test system: Puccinia recondita-tritici (PUCCRT); test: Control of wheat brown rust, one-day protective (1DP) application, greenhouse; conditions: for A % DC: component A alone; for B % DC: component B alone
Description: as §1, §2, §3, §4

[4] = test system: Septoria tritici (SEPTTR); test: Control of wheat leaf blotch, three-day curative (3DC) application, greenhouse; conditions: for A % DC: component A alone; for B % DC: component B alone
Description: as §1
(§5) For the three-day curative experiments, plants were inoculated with an aqueous spore suspension of the pathogen of interest (either PUCCRT or SEPTTR) and then placed in a dew room from 1-3 days to allow for infection to occur. The plants were removed from the dew room, allowed to dry for approximately one hour (h), sprayed with the test materials formulated as described above, and then placed in the greenhouse for symptom development to occur as described previously.
as §3, §4

[5] = test system: Puccinia recondita-tritici (PUCCRT); test: Control of wheat brown rust, three-day curative (3DC) application, greenhouse; conditions: for A % DC: component A alone; for B % DC: component B alone
Description: as §1, §5, §3, §4

Compound	B % DC ([1]; 0.4 ppm) [%]	B % DC ([1]; 1.6 ppm) [%]	B % DC ([3]; 0.1 ppm) [%]	B % DC ([3]; 0.4 ppm) [%]	B % DC ([3]; 1.6 ppm) [%]	B % DC ([3]; 6.3 ppm) [%]	B % DC ([4]; 0.1 ppm) [%]	B % DC ([5]; 0.4 ppm) [%]	B % DC ([1]; 0.1 ppm) [%]	B % DC ([5]; 1.6 ppm) [%]	further results
COc1ccnc(C(=O)N[C@H]2COC(=O)[C@H](Cc3ccccc3)[C@@H](OC(=O)C(C)C)[C@H](C)OC2=O)c1OCOC(=O)C(C)C [Cmpd I, (3S,6S,7R,8R)-8-benzyl-3-(3-((isobutyryloxy)methoxy)-4-methoxypicolinamido)-6-methyl-4,9-dioxo-1,5-dioxonan-7-yl isobutyrate]	–	–	–	–	–	–	–	–	–	–	A % DC ([1]; 0.1 ppm): 7%; A % DC ([1]; 0.4 ppm): 19%; A % DC ([1]; 1.6 ppm): 53%; A % DC ([2]; component A alone, 150 g ai/ha): 34.1%; A % DC ([3]; 0.4 ppm): 0%; A % DC ([3]; 1.6 ppm): 19.6%; A % DC ([3]; 6.3 ppm): 85.5%; A % DC ([4]; 0.1 ppm): 45.3%; A % DC ([4]; 1.6 ppm): 55.2%; A % DC ([4]; 6.3 ppm): 70.1%; A % DC ([5]; 0.1 ppm): 0%; A % DC ([5]; 0.4 ppm): 0%; A % DC ([5]; 1.6 ppm): 0%; A % DC ([5]; 6.3 ppm): 0%
CC(C1CC1)C(O)(Cn1cncn1)c1ccc(Cl)cc1 (stereo not drawn) [Cyproconazole, α-(4-chlorophenyl)-α-(1-cyclopropylethyl)-1H-1,2,4-triazole-1-ethanol]	9	19	0	0	27	57	44.0	82	–	–	B % DC ([2]; 40 g ai/ha): 38%
CC1(C)CCC(Cc2ccc(Cl)cc2)C1(O)Cn1cncn1 (centres unmarked) [Metconazole, 5-[(4-chlorophenyl)methyl]-2,2-dimethyl-1-(1H-1,2,4-triazol-1-ylmethyl)cyclopentanol]	–	–	–	0	8	87	–	4	9	–	–
CCCC1COC(Cn2cncn2)(c2ccc(Cl)cc2Cl)O1 (centres unmarked) [Propiconazole, 1-[[2-(2,4-dichlorophenyl)-4-propyl-1,3-dioxolan-2-yl]methyl]-1H-1,2,4-triazole]	–	29	0	–	0	0	–	–	0	2	B % DC ([1]; 6.3 ppm): 68%; B % DC ([5]; 6.3 ppm): 93%
COC(=O)N(OC)c1ccccc1COc1ccn(-c2ccc(Cl)cc2)n1 [Pyraclostrobin, pyraclostrobin]	–	–	–	–	–	–	–	–	–	–	B % DC ([2]; 60 g ai/ha): 85.8%
CC(C)(C)C(O)(CCc1ccc(Cl)cc1)Cn1cncn1 (stereo not drawn) [Tebuconazole, α-[2-(4-chlorophenyl)ethyl]-α-(1,1-dimethylethyl)-1H-1,2,4-triazole-1-ethanol]	0	34	0	0	18	82	23.0	2	–	87	B % DC ([2]; 140 g ai/ha): 74.3%
